In patent US5066817A, “DC115A compounds produced by streptomyces sp” (Kyowa Hakko Kogyo Co., Ltd., priority 1989, dated 1991):
≈ marks a conversion by molar mass, not a printed value.

Legend:
T24 cells = assay: Growth inhibition against T24 cells (Neutral Red staining); assay type: cell-based; details: Homo sapiens, T-24, 72 hours
Protocol: (§1) A T24 cell suspension ([…]) prepared by suspending T24 cells in a medium comprising F10 medium (GIBCO Co., Ltd.), […] fetal calf serum, 100 units/ml penicillin and 100 μg/ml streptomycin (hereinafter referred to as medium A) was put into wells of a 96-well microtiter plate in an amount of 0.1 ml per well. After incubation at 37° C. for 20 hours in a […], 0.05 ml of a sample appropriately diluted with medium A was added to each well. The cells were further cultured at 37° C. for 72 hours in the CO2 -incubator and the culture supernatant was removed. To the residue was added a medium comprising medium A and 0.02% Neutral Red in an amount of 0.1 ml per well, followed by culturing at 37° C. for one hour in the CO2 -incubator, whereby the cells were stained. After the culture supernatant was removed, the residue was washed once with physiological saline.
(§2) Then, the pigment was extracted with 0.001N hydrochloric acid/30% ethanol and absorbance at 550 nm was measured with a microplate reader. By comparing the absorbance of intact cells with those of the cells treated with a test compound at known concentrations, the concentration of the test compound at which the growth of the cells is inhibited by 50% (IC50) was determined.

Solubility = assay type: physicochemical
tumor cells = assay: Growth inhibition of tumor cells, overall result of (B) and (C); assay type: cell-based; details: from the results of (B) and (C)
Protocol: as §1, §2
(§3) IC50 was determined in the same manner as in the case of T24 cells except that a suspension of HeLaS3 cells (3×10^4 cells/ml) prepared by suspending HeLaS3 cell medium comprising MEM medium (Nissui Pharmaceutical Co., Ltd.) and 2 mM glutamine was used.

HeLaS3 cells = assay: Growth inhibition against HeLaS3 cells; assay type: cell-based; details: Homo sapiens, HeLa S3, 72 hours
Protocol: as §1, §2, §3

Escherichia coli ATCC 26 = assay: Antibacterial activity, agar dilution method (pH 7.0); assay type: cell-based; details: ATCC26, read-out: Minimum Inhibitory Concentration
Protocol: (§4) The minimum inhibitory concentration (MIC) against various bacteria was determined by the agar dilution method (pH 7.0).

[1] = tested on: Klebsiella pneumoniae ATCC 10031; assay: as above; assay type: cell-based; details: ATCC10031, read-out: Minimum Inhibitory Concentration
Protocol: as §4

[2] = tested on: Staphylococcus aureus ATCC 6538P; assay: as above; assay type: cell-based; details: ATCC6538P, read-out: Minimum Inhibitory Concentration
Protocol: as §4

[3] = tested on: Salmonella typhi ATCC 9992; assay: as above; assay type: cell-based; details: Salmonella enterica, pH 7, read-out: Minimum Inhibitory Concentration
Protocol: as §4

[4] = tested on: Bacillus subtilis No. 10707; assay: as above; assay type: cell-based; details: read-out: Minimum Inhibitory Concentration
Protocol: as §4

[5] = chloroform, dimethylsulfoxide, methanol, ethyl acetate and acetone

SMILES	IC50 (T24 cells) [µg/mL]	Solubility (Solubility; [5])	Solubility (Solubility; water and n-hexane)	inhibition of growth of tumor cells (tumor cells)	IC50 (HeLaS3 cells) [µg/mL]	MIC (Escherichia coli ATCC 26) [µg/mL]	MIC [1] [µg/mL]	MIC [2] [µg/mL]	MIC [3] [µg/mL]	MIC [4] [µg/mL]
CCC1OC1(C)c1cc(=O)c2c(CC(=O)O)cc3cc4c(c(O)c3c2o1)C(=O)CCC4OC(C)=O (stereo not drawn) [DC115A2]	0.11 (≈ 0.229 µM)	Soluble	sparingly soluble	inhibit the growth of tumor cells	0.19 (≈ 0.395 µM)	83 (≈ 173 µM)	10 (≈ 20.8 µM)	2.6 (≈ 5.41 µM)	> 100	10 (≈ 20.8 µM)
CCCC1OC1(C)c1cc(=O)c2c(CC(=O)O)cc3cc4c(c(O)c3c2o1)C(=O)CCC4OC(C)=O (stereo not drawn) [DC115A1]	0.17 (≈ 0.344 µM)	Soluble	sparingly soluble	inhibit the growth of tumor cells	0.22 (≈ 0.445 µM)	> 100	> 100	5.2 (≈ 10.5 µM)	> 100	10 (≈ 20.2 µM)
CC=CC1OC1(C)c1cc(=O)c2c(CC(=O)O)cc3cc4c(c(O)c3c2o1)C(=O)CCC4OC(C)=O (stereo not drawn) [DC115A3]	0.14 (≈ 0.284 µM)	Soluble	sparingly soluble	inhibit the growth of tumor cells	0.42 (≈ 0.853 µM)	21 (≈ 42.6 µM)	5.2 (≈ 10.6 µM)	0.3 (≈ 0.609 µM)	83 (≈ 169 µM)	1.3 (≈ 2.64 µM)
